Laboratory results as given in patent US11591341B2 (ALIGOS THERAPEUTICS, INC., priority 2019, dated 2023).

Tested on: HBV
Assay: HBV-DNA Antiviral Assay Using HepG2.117 Cells (intracellular HBV DNA by qPCR)
Type: cell-based, hepatitis B virus (genotype D)
Settings: Hepatitis B virus, HepG2.117
Procedure, shortened: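 Endpoint: qPCR copy number of intracellular HBV DNA after 3-day compound exposure, with inhibition set relative to the 2% DMSO control. The cells were doxycycline-free HepG2.117 carrying a Tet-off genotype D genome, dosed at nine 4-fold dilutions. A duplicate plate gave ATP-based viability (CC50).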

Row | SMILES | EC50 [µM]
1 | COc1ccc(-n2c(C(=O)NCc3ccc(OC(F)(F)F)cc3)c3n(c2=O)CCN(C(=O)c2ccc(Br)c(Cl)c2)C3)cc1 [Example 158, 7-(4-bromo-3-chloro-benzoyl)-2-(4-methoxyphenyl)-3-oxo-N-[[4-(trifluoromethoxy)phenyl]methyl]-6,8-dihydro-5H-imidazo[1,5-a]pyrazine-1-carboxamide] | 0.1 to 0.5
2 | COc1ccc(CNC(=O)c2c3n(c(=O)n2-c2ccc(C#N)cc2)CCN(C(=O)c2ccc(Br)c(Cl)c2)C3)c(C)c1 [Example 163, 7-(4-bromo-3-chloro-benzoyl)-2-(4-cyanophenyl)-N-[(4-methoxy-2-methyl-phenyl)methyl]-3-oxo-6,8-dihydro-5H-imidazo[1,5-a]pyrazine-1-carboxamide] | 0.5 to 5
3 | COc1ccc(CNC(=O)c2c3n(c(=O)n2-c2ccc(C#N)cc2)CCN(C(=O)c2ccc(Br)c(Cl)c2)C3)c(F)c1 [Example 164, 7-(4-bromo-3-chloro-benzoyl)-2-(4-cyanophenyl)-N-[(2-fluoro-4-methoxy-phenyl)methyl]-3-oxo-6,8-dihydro-5H-imidazo[1,5-a]pyrazine-1-carboxamide] | 0.5 to 5
4 | COC(=O)c1cccc(CNC(=O)c2c3n(c(=O)n2-c2ccc(OC)cc2)CCN(C(=O)c2ccc(Br)c(Cl)c2)C3)c1 [Example 165, methyl 3-[[[7-(4-bromo-3-chloro-benzoyl)-2-(4-methoxyphenyl)-3-oxo-6,8-dihydro-5H-imidazo[1,5-a]pyrazine-1-carbonyl]amino]methyl]benzoate] | 0.1 to 0.5
5 | COc1ccc(-n2c(C(=O)NCc3cccc4cccnc34)c3n(c2=O)CCN(C(=O)c2ccc(Br)c(Cl)c2)C3)cc1 [Example 166, 7-(4-bromo-3-chloro-benzoyl)-2-(4-methoxyphenyl)-3-oxo-N-(8-quinolylmethyl)-6,8-dihydro-5H-imidazo[1,5-a]pyrazine-1-carboxamide] | 0.1 to 0.5
6 | COc1ccc(-n2c(C(=O)NCc3ccccc3-n3cccn3)c3n(c2=O)CCN(C(=O)c2ccc(Br)c(Cl)c2)C3)cc1 [Example 167, 7-(4-bromo-3-chloro-benzoyl)-2-(4-methoxyphenyl)-3-oxo-N-[(2-pyrazol-1-ylphenyl)methyl]-6,8-dihydro-5H-imidazo[1,5-a]pyrazine-1-carboxamide] | < 0.1
7 | COc1ccc(-n2c(C(=O)NCc3cnccn3)c3n(c2=O)CCN(C(=O)c2ccc(Br)c(Cl)c2)C3)cc1 [Example 171, 7-(4-bromo-3-chloro-benzoyl)-2-(4-methoxyphenyl)-3-oxo-N-(pyrazin-2-ylmethyl)-6,8-dihydro-5H-imidazo[1,5-a]pyrazine-1-carboxamide] | > 5
8 | COc1ccc(-n2c(C(=O)NCc3ccc(C#N)cc3)c3n(c2=O)CCN(C(=O)c2ccc(Br)c(Cl)c2)C3)cc1 [Example 180, 7-(4-bromo-3-chloro-benzoyl)-N-[(4-cyanophenyl)methyl]-2-(4-methoxyphenyl)-3-oxo-6,8-dihydro-5H-imidazo[1,5-a]pyrazine-1-carboxamide] | 0.5 to 5
9 | COc1ccc(-n2c(C(=O)NCc3ccccc3F)c3n(c2=O)CCN(C(=O)c2ccc(Br)c(Cl)c2)C3)cc1 [Example 181, 7-(4-bromo-3-chloro-benzoyl)-N-[(2-fluorophenyl)methyl]-2-(4-methoxyphenyl)-3-oxo-6,8-dihydro-5H-imidazo[1,5-a]pyrazine-1-carboxamide] | 0.1 to 0.5
10 | COc1ccc(-n2c(C(=O)NCc3ccc4c(c3)OCO4)c3n(c2=O)CCN(C(=O)c2ccc(Br)c(Cl)c2)C3)cc1 [Example 182, N-(1,3-benzodioxol-5-ylmethyl)-7-(4-bromo-3-chloro-benzoyl)-2-(4-methoxyphenyl)-3-oxo-6,8-dihydro-5H-imidazo[1,5-a]pyrazine-1-carboxamide] | 0.1 to 0.5
11 | COc1ccc(-n2c(C(=O)NCc3ccc(CC(N)=O)cc3)c3n(c2=O)CCN(C(=O)c2ccc(Br)c(Cl)c2)C3)cc1 [Example 183, N-[[4-(2-amino-2-oxo-ethyl)phenyl]methyl]-7-(4-bromo-3-chloro-benzoyl)-2-(4-methoxyphenyl)-3-oxo-6,8-dihydro-5H-imidazo[1,5-a]pyrazine-1-carboxamide] | 0.5 to 5
